What all share (assay type): cell-based
Experiment [1] deals with AXL (phospho-AXL, Gas6-stimulated A-172 glioblastoma cells) (Homo sapiens (Human), UniProt P30530). Put plainly: AXL autophosphorylation ELISA in A-172 cells (Example E). As to conditions: cellular activity, read-out: Axl IC50. The protocol:
A-172 cells were incubated at 37° C., 5% CO2 for 24 h and then starved for 24 h in serum-free medium. Test compounds were serially diluted to produce an 8-point dose curve in fresh serum-free medium to a final concentration of 0.3% DMSO (vehicle) and added to the cells and incubated for 1 h. […] Lysates were collected and 100 μL/well added into the human phospho-AXL DuoSet IC ELISA (R&D Systems #DYC2228-2). […] Positive control wells (100% activity) contained Gas6-stimulated, DMSO-treated cell lysates. Negative control wells (0% activity) contained Gas6-stimulated, reference inhibitor-treated cell lysates. IC50 values were calculated by nonlinear regression analysis using a 4-parameter logistic curve fit in ActivityBase XE (IDBS).
Background: An ELISA detects its analyte on a solid surface through an enzyme-linked reagent.

The target of experiment [2] is Met (phospho-Met, HGF-stimulated PC-3 prostate cancer cells) (Homo sapiens (Human), UniProt P08581). Put plainly: Met autophosphorylation ELISA in PC-3 cells (Example F). As to conditions: cellular activity, read-out: c-Met IC50. The gist of the method: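 Serum-starved (3 h) PC-3 cells were treated 1 h with compounds (8-point curve, 0.3% DMSO), then stimulated with 100 ng/mL human HGF for 10 min. Lysate phospho-Met (panTyr) was measured by sandwich ELISA, normalised to DMSO and reference-inhibitor controls. IC50 came from 4-parameter logistic fit.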

For experiment [3], the target named is KDR (phospho-KDR, VEGF165-stimulated HUVEC cells) (Homo sapiens (Human), UniProt P35968). As to the kind of experiment: KDR autophosphorylation ELISA in HUVEC cells (Example G). As to conditions: cellular activity; KDR autophosphorylation ELISA in HUVEC cells. The gist of the method: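 Inhibition of VEGF165-driven KDR autophosphorylation is measured in primary human umbilical vein endothelial cells after 24 h serum deprivation. Compound preincubation lasts 1 h before a 5-minute challenge with 100 ng/mL ligand, and phosphorylated receptor is then measured by ELISA in the lysates.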

Experiment [4] has as its target Mer (phospho-Mer, MERTK-transfected 293A cells) (Homo sapiens (Human), UniProt Q12866). Put plainly: Mer autophosphorylation ELISA in transient transfected 293A cells (Example H). Particulars: cellular activity. The essentials:
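MERTK-transfected 293A; 8-pt dose, 1 h, serum-free, 0.3% DMSO. Cold lysis with orthovanadate and protease/phosphatase inhibitors. Phospho-Mer by DuoSet IC ELISA vs phospho-Mer standard. IC50: 4-PL fit; DMSO = 100%, reference inhibitor = 0%.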

Setting [5] is: AXL autophosphorylation ELISA in A-172 cells.
The mark [6] stands for this setting: Met autophosphorylation ELISA in PC-3 cells.
Where [7] appears, read: Mer autophosphorylation ELISA in transient transfected 293A cells.

By IC50 is commonly meant the point on the concentration scale where inhibition reaches its midpoint.

Like-named read-outs stand apart in the source and are kept apart here.

Sequence of KDR (phospho-KDR, VEGF165-stimulated HUVEC cells) (P35968 20-1356): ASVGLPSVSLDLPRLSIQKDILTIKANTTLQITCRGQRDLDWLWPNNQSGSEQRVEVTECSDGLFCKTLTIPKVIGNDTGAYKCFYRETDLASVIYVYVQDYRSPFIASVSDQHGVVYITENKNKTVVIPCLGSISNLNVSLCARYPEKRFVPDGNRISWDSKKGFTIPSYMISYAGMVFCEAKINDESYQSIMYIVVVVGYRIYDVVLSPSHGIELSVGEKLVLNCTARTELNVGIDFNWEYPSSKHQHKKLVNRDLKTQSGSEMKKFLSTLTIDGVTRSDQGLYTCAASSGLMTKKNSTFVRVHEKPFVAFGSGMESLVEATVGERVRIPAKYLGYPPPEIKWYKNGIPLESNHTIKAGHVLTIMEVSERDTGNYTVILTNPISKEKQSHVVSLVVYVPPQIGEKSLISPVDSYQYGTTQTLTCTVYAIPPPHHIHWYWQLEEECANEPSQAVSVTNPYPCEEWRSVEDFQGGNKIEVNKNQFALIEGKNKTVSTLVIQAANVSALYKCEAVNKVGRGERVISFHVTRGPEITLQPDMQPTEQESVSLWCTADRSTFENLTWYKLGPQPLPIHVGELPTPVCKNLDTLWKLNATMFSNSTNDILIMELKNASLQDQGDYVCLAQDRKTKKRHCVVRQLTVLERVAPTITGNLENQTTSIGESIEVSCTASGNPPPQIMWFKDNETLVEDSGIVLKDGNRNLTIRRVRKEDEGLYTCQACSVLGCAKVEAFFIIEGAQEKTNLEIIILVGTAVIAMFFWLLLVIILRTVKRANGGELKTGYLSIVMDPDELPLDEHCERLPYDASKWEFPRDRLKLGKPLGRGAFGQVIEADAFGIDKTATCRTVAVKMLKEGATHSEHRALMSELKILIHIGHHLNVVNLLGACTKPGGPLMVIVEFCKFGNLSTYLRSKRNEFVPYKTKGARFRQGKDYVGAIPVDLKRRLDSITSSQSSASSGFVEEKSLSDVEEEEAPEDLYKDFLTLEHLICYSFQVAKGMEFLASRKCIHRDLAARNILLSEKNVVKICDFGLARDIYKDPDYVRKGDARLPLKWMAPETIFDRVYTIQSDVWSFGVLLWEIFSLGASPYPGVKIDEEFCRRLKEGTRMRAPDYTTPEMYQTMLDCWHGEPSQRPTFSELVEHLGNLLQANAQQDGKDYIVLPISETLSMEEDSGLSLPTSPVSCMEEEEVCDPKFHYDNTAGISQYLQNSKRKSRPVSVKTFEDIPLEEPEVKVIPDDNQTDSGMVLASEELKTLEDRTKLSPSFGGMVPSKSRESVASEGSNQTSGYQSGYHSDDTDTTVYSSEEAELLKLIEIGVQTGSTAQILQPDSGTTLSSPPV
Sequence of Mer (phospho-Mer, MERTK-transfected 293A cells) (Q12866 21-999): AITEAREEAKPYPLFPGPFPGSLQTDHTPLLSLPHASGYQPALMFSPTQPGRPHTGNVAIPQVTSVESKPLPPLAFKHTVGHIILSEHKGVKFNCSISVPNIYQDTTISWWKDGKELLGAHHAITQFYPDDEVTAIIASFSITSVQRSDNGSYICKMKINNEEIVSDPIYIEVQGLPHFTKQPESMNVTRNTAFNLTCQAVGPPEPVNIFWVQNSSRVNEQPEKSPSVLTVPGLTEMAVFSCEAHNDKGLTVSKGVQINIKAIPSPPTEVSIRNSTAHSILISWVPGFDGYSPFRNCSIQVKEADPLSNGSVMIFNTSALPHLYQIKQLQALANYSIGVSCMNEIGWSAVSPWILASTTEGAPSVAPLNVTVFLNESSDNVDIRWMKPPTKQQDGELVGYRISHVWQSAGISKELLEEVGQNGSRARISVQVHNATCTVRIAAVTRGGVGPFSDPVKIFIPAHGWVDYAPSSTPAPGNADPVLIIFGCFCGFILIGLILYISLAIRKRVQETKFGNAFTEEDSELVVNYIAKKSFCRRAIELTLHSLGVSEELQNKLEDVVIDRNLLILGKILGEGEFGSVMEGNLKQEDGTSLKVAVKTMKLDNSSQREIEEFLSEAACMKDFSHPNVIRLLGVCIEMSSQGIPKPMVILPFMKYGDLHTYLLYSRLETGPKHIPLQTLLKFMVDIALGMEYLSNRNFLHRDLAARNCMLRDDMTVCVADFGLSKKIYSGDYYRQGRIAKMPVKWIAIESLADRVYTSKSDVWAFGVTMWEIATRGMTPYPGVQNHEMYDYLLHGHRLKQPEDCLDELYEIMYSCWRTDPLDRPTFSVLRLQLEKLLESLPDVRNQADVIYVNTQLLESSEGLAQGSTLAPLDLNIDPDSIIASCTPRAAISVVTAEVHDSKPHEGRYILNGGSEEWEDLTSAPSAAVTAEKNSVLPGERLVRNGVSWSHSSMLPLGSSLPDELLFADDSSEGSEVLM
Sequence of AXL (phospho-AXL, Gas6-stimulated A-172 glioblastoma cells) (P30530 26-894): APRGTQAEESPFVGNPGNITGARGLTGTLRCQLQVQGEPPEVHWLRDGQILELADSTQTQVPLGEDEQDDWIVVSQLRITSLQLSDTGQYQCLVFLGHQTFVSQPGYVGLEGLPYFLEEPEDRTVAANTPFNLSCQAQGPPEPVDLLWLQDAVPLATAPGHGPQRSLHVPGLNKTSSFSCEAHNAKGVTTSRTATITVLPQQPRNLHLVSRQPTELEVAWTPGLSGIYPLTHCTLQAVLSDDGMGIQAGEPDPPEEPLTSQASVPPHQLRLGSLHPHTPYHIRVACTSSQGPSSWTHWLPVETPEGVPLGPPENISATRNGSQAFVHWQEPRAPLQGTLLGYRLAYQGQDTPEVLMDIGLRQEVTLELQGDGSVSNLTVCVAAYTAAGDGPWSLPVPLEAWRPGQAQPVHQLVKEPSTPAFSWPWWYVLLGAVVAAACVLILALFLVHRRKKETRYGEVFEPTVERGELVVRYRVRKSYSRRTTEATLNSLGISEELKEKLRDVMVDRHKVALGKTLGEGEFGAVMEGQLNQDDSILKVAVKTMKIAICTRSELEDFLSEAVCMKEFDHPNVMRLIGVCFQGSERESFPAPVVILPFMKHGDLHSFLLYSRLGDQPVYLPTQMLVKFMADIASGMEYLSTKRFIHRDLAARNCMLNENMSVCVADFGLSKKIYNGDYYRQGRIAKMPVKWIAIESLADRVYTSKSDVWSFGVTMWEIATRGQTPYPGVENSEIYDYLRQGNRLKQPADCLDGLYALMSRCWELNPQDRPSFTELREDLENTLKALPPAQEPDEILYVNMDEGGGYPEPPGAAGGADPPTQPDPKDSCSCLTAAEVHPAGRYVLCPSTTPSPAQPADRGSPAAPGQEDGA
Sequence of Met (phospho-Met, HGF-stimulated PC-3 prostate cancer cells) (P08581 25-1390): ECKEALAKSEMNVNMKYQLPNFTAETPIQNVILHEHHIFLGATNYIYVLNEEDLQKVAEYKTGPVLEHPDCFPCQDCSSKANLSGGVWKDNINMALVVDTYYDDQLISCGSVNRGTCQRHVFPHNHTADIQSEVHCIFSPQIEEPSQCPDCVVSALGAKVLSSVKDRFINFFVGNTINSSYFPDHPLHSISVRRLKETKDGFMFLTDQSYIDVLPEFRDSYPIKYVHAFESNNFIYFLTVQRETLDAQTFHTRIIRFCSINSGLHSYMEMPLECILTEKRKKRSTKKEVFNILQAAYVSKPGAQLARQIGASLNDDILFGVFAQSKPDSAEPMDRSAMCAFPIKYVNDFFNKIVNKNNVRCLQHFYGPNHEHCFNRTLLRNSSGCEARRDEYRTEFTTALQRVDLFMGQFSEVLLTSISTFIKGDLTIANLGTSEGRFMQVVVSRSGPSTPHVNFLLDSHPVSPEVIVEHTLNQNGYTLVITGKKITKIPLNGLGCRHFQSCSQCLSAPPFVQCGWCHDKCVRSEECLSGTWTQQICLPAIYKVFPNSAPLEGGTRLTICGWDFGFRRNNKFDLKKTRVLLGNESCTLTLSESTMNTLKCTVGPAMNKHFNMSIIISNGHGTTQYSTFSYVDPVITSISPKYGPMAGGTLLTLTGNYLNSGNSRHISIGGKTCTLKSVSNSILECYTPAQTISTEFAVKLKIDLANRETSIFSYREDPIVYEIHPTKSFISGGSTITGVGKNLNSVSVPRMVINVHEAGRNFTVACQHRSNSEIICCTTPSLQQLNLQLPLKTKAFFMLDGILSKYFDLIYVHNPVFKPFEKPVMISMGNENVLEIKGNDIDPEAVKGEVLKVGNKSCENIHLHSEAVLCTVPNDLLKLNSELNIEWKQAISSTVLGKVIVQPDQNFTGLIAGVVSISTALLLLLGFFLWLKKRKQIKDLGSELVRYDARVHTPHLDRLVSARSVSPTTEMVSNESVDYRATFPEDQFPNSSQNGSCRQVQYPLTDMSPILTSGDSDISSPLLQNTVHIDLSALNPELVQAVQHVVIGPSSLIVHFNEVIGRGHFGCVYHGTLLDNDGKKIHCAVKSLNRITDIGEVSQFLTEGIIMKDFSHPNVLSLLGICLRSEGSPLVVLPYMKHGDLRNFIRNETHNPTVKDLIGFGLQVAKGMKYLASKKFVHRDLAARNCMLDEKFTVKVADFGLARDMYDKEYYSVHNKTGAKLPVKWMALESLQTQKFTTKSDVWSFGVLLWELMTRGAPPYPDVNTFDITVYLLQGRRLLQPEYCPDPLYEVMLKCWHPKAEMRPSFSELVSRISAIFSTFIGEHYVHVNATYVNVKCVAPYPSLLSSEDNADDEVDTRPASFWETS

With `COc1cc2nccc(Oc3ccc(NC(=O)c4cn(C5(C)COC5)cc(-c5ccc(F)cc5)c4=O)cc3F)c2nc1OC` [Compound 54, N-[4-[(6,7-Dimethoxy-1,5-naphthyridin-4-yl)oxy]-3-fluorophenyl]-5-(4-fluorophenyl)-1-(3-methyloxetan-3-yl)-4-oxopyridine-3-carboxamide], the IC50 in experiment [1] (setting [5]) is less than 100 nM; in experiment [2] (setting [6]), less than 100 nM; in experiment [3], more than 300 nM; in experiment [4] (setting [7]), less than 100 nM.

Take `COc1cc2nccc(Oc3ccc(NC(=O)c4cn(C5(C)COC5)cc(-c5ccc(F)cc5)c4=O)cc3F)c2cc1OC` [Compound 55, N-[4-(6,7-Dimethoxyquinolin-4-yl)oxy-3-fluorophenyl]-5-(4-fluorophenyl)-1-(3-methyloxetan-3-yl)-4-oxopyridine-3-carboxamide]: the IC50 in experiment [1] (setting [5]) was less than 100 nM; in experiment [2] (setting [6]) it was less than 100 nM; in experiment [3] it was more than 300 nM; in experiment [4] (setting [7]), less than 100 nM.

On to `COc1cc2nccc(Oc3ccc(NC(=O)c4cn(C(C)(C)CO)cc(-c5ccc(F)cc5)c4=O)cc3F)c2nc1OC` [Compound 56, N-[4-[(6,7-Dimethoxy-1,5-naphthyridin-4-yl)oxy]-3-fluorophenyl]-5-(4-fluorophenyl)-1-(1-hydroxy-2-methylpropan-2-yl)-4-oxopyridine-3-carboxamide], for which the IC50 is less than 100 nM in experiment [1] (setting [5]), less than 100 nM in experiment [2] (setting [6]), more than 300 nM in experiment [3] and less than 100 nM in experiment [4] (setting [7]).

As for `COc1cc2nccc(Oc3ccc(NC(=O)c4cn(C(C)(C)CO)cc(-c5ccc(F)cc5)c4=O)cc3F)c2cc1OC` [Compound 57, N-[4-(6,7-Dimethoxyquinolin-4-yl)oxy-3-fluorophenyl]-5-(4-fluorophenyl)-1-(1-hydroxy-2-methylpropan-2-yl)-4-oxopyridine-3-carboxamide], the IC50 was less than 100 nM in experiment [1] (setting [5]), less than 100 nM in experiment [2] (setting [6]), more than 300 nM in experiment [3] and less than 100 nM in experiment [4] (setting [7]).

As to `COCCOc1nc2c(Oc3ccc(NC(=O)c4c(C)nc(C)c(-c5ccc(F)cc5)c4O)cc3F)ccnc2cc1OC` [Compound 207, N-[3-Fluoro-4-[[7-methoxy-6-(2-methoxyethoxy)-1,5-naphthyridin-4-yl]oxy]phenyl]-5-(4-fluorophenyl)-4-hydroxy-2,6-dimethylpyridine-3-carboxamide], the IC50 in experiment [1] (setting [5]), in experiment [2] (setting [6]), in experiment [3] and in experiment [4] (setting [7]) was less than 100 nM each time.

Consider `COCCOc1nc2c(Oc3ccc(NC(=O)c4c(C)nc(C)c(-c5ccc(F)cc5C)c4O)cc3F)ccnc2cc1OC` [Compound 208, N-[3-Fluoro-4-[[7-methoxy-6-(2-methoxyethoxy)-1,5-naphthyridin-4-yl]oxy]phenyl]-5-(4-fluoro-2-methylphenyl)-4-hydroxy-2,6-dimethylpyridine-3-carboxamide], for which the IC50 in experiment [1] (setting [5]), in experiment [2] (setting [6]), in experiment [3] and in experiment [4] (setting [7]) was less than 100 nM throughout.

For `CCn1cc(-c2ccc(F)cc2)c(=O)c(C(=O)Nc2ccc(Oc3ccnc4cc(OC)c(OC)nc34)cc2)c1C` [Compound 244, N-[4-[(6,7-Dimethoxy-1,5-naphthyridin-4-yl)oxy]phenyl]-1-ethyl-5-(4-fluorophenyl)-2-methyl-4-oxopyridine-3-carboxamide], the IC50 in experiment [1] (setting [5]) was less than 100 nM; in experiment [2] (setting [6]), less than 100 nM; in experiment [3], more than 300 nM; in experiment [4] (setting [7]), less than 100 nM.

For the molecule `COc1cc2nccc(Oc3ccc(NC(=O)c4n[nH]c(C)c(-c5ccc(F)cc5)c4=O)cc3)c2nc1OC` [Compound 253, N-[4-[(6,7-Dimethoxy-1,5-naphthyridin-4-yl)oxy]phenyl]-5-(4-fluorophenyl)-6-methyl-4-oxo-1H-pyridazine-3-carboxamide], the half-inhibitory concentration (IC50) in experiment [1] (setting [5]), in experiment [2] (setting [6]), in experiment [3] and in experiment [4] (setting [7]) was less than 100 nM throughout.

On to `COc1cc2nccc(Oc3ccc(NC(=O)c4c(C)ccn(-c5ccc(F)cc5C)c4=O)cc3F)c2nc1OC` [Compound 311, N-[4-[(6,7-Dimethoxy-1,5-naphthyridin-4-yl)oxy]-3-fluorophenyl]-1-(4-fluoro-2-methylphenyl)-4-methyl-2-oxopyridine-3-carboxamide], for which the IC50 in experiment [1] (setting [5]), in experiment [2] (setting [6]), in experiment [3] and in experiment [4] (setting [7]) was less than 100 nM throughout.

Take `COc1cnc2c(Oc3ccc(NC(=O)c4c(C)c(Br)c(C)n(-c5ccc(F)cc5)c4=O)cc3)ccnc2c1` [Compound 312, 5-Bromo-1-(4-fluorophenyl)-N-[4-[(7-methoxy-1,5-naphthyridin-4-yl)oxy]phenyl]-4,6-dimethyl-2-oxopyridine-3-carboxamide]: the IC50 in experiment [1] (setting [5]) is less than 100 nM; in experiment [2] (setting [6]), less than 100 nM; in experiment [3], 100 to 300 nM; in experiment [4] (setting [7]), less than 100 nM.

As for `COc1cc2nccc(Oc3ccc(NC(=O)c4c(C)c(Br)c(C)n(-c5ccc(F)cc5)c4=O)cc3)c2nc1OC` [Compound 313, 5-Bromo-N-[4-[(6,7-dimethoxy-1,5-naphthyridin-4-yl)oxy]phenyl]-1-(4-fluorophenyl)-4,6-dimethyl-2-oxopyridine-3-carboxamide], the 50% inhibitory concentration (IC50) in experiment [1] (setting [5]), in experiment [2] (setting [6]), in experiment [3] and in experiment [4] (setting [7]) was less than 100 nM each time.

For `COc1cnc2c(Oc3ccc(NC(=O)c4c(C)c(Br)c(C)n(-c5ccc(F)cc5)c4=O)cc3F)ccnc2c1` [Compound 314, 5-Bromo-N-[3-fluoro-4-[(7-methoxy-1,5-naphthyridin-4-yl)oxy]phenyl]-1-(4-fluorophenyl)-4,6-dimethyl-2-oxopyridine-3-carboxamide], the IC50 in experiment [1] (setting [5]), in experiment [2] (setting [6]), in experiment [3] and in experiment [4] (setting [7]) was less than 100 nM throughout.

In the case of `COc1cc2nccc(Oc3ccc(NC(=O)c4c(C)c(C)c(C)n(-c5ccc(F)cc5)c4=O)cc3)c2nc1OC` [Compound 315, N-[4-[(6,7-Dimethoxy-1,5-naphthyridin-4-yl)oxy]phenyl]-1-(4-fluorophenyl)-4,5,6-trimethyl-2-oxopyridine-3-carboxamide], the IC50 in experiment [1] (setting [5]), in experiment [2] (setting [6]), in experiment [3] and in experiment [4] (setting [7]) was less than 100 nM in each case.

Consider `COc1cnc2c(Oc3ccc(NC(=O)c4c(C)c(C)c(C)n(-c5ccc(F)cc5)c4=O)cc3F)ccnc2c1` [Compound 316, N-[3-Fluoro-4-[(7-methoxy-1,5-naphthyridin-4-yl)oxy]phenyl]-1-(4-fluorophenyl)-4,5,6-trimethyl-2-oxopyridine-3-carboxamide], for which the half-inhibitory concentration (IC50) in experiment [1] (setting [5]), in experiment [2] (setting [6]), in experiment [3] and in experiment [4] (setting [7]) was less than 100 nM throughout.

As to `COc1cnc2c(Oc3ccc(NC(=O)c4c(C)c(C)c(C)n(-c5ccc(F)cc5)c4=O)cc3)ccnc2c1` [Compound 317, 1-(4-Fluorophenyl)-N-[4-[(7-methoxy-1,5-naphthyridin-4-yl)oxy]phenyl]-4,5,6-trimethyl-2-oxopyridine-3-carboxamide], the IC50 in experiment [1] (setting [5]), in experiment [2] (setting [6]), in experiment [3] and in experiment [4] (setting [7]) was less than 100 nM throughout.

As to `COc1cc2nccc(Oc3ccc(NC(=O)c4c(C)n(CCF)cc(-c5ccc(F)c(C)c5)c4=O)cc3F)c2nc1OC` [Compound 806, N-[4-[(6,7-dimethoxy-1,5-naphthyridin-4-yl)oxy]-3-fluorophenyl]-1-(2-fluoroethyl)-5-(4-fluoro-3-methylphenyl)-2-methyl-4-oxopyridine-3-carboxamide], the IC50 in experiment [1] (A-172 cells), in experiment [2] (PC-3 cells) and in experiment [4] (transfected 293A cells) was less than 100 nM in each case.

For `COc1cnc2c(Oc3ccc(NC(=O)c4c(C)n(CCF)cc(-c5ccc(F)c(F)c5)c4=O)cc3F)ccnc2c1` [Compound 807, 5-(3,4-difluorophenyl)-1-(2-fluoroethyl)-N-[3-fluoro-4-[(7-methoxy-1,5-naphthyridin-4-yl)oxy]phenyl]-2-methyl-4-oxopyridine-3-carboxamide], the concentration for half-maximal inhibition (IC50) in experiment [1] (A-172 cells) was less than 100 nM; in experiment [2] (PC-3 cells), 100 to 300 nM; in experiment [4] (transfected 293A cells), less than 100 nM.

Source of the values: patent US12371428B2 (Exelixis, Inc., priority 2019, dated 2025).
